Source: ChEMBL document CHEMBL1921693, “Efficient synthesis and in vitro antitubercular activity of 1,2,3-triazoles as inhibitors of Mycobacterium tuberculosis” (2011)
In brackets after ≈: the same amount, converted by molar mass.

system: Mycobacterium tuberculosis; test: Antituberculosis activity against Mycobacterium tuberculosis H37Rv by agar dilution method; assay type: functional

Going from CCOC(=O)c1nnn(Cc2ccccc2)c1C(=O)OCC to CCOC(=O)c1nnn(CC(=O)c2ccccc2)c1C(=O)OCC, the MIC falls from 12.5 µg/mL (≈ 41.2 µM) to 3.13 µg/mL (≈ 9.45 µM) (4-fold).

First: COC(=O)c1nnn(CC(=O)c2ccc(OC)cc2)c1C(=O)OC
Second: COC(=O)c1nnn(CC(=O)c2ccc(Br)cc2)c1C(=O)OC
The MIC of the first is 4-fold higher: 12.5 µg/mL (≈ 37.5 µM) for the first, 3.13 µg/mL (≈ 8.19 µM) for the second.

Going from NNC(=O)c1ccncc1 [ISONIAZID] to COC(=O)c1nnn(CC(=O)c2ccccc2)c1C(=O)OC, the MIC rises from 0.75 µg/mL (≈ 5.47 µM) to 12.5 µg/mL (≈ 41.2 µM) (17-fold).

Compared with CC[C@@H](CO)NCCN[C@@H](CC)CO [ETHAMBUTOL], CCOC(=O)c1nnn(CC(=O)OC)c1C(=O)OCC is higher in MIC: 3.25 µg/mL (≈ 15.9 µM) for the first, over 25 µg/mL for the second.

Compared with CCOC(=O)c1nnn(CC(=O)c2ccc(Br)cc2)c1C(=O)OCC, CCOC(=O)c1nnn(CC(=O)c2ccc(Cl)cc2)c1C(=O)OCC is 2-fold higher in MIC: 1.56 µg/mL (≈ 3.8 µM) for the first, 3.13 µg/mL (≈ 8.56 µM) for the second.

CCOC(=O)Cn1nnc(C(=O)OC)c1C(=O)OC and COC(=O)Cn1nnc(C(=O)OC)c1C(=O)OC cannot be ordered by MIC: over 25 µg/mL for the first, over 25 µg/mL for the second.

Going from COC(=O)c1nnn(Cc2ccccc2)c1C(=O)OC to COC(=O)c1nnn(CC(=O)c2ccc(Cl)cc2)c1C(=O)OC, the MIC falls from 25 µg/mL (≈ 90.8 µM) to 6.25 µg/mL (≈ 18.5 µM) (4-fold).

First: CCOC(=O)Cn1nnc(C(=O)OCC)c1C(=O)OCC
Second: CCOC(=O)c1nnn(CC(=O)c2ccc(OC)cc2)c1C(=O)OCC
The MIC of the first is higher: over 25 µg/mL for the first, 6.25 µg/mL (≈ 17.3 µM) for the second.

system: Mycobacterium tuberculosis; test: Ratio of ethambutol MIC to compound MIC for Mycobacterium tuberculosis H37Rv; assay type: functional

Compound CCOC(=O)c1nnn(CC(=O)c2ccc(Br)cc2)c1C(=O)OCC has a Ratio of 2.08.
